# Results reported in patent publication US8093301B2, “Anti-allergic agent” (Meiji Co., Ltd., priority 2005, dated 2012).
# Values joined by “and” are separate entries in the source; they are usually repeats but may differ in a detail not shown here. Identical values can stand only once. Counter-ions that a name gives are not always drawn. Like-named read-outs stand apart in the source and are kept apart here.
# Experiments:
# [1] = test system: basophil-like cells (RBL-2H3); experiment: β-hexosaminidase release inhibition test (degranulation of IgE-sensitised, DNP-BSA-stimulated cells); assay type: cell-based; conditions: for IC50: read-out: 50% β-hexosaminidase release inhibitory concentration (IC50)
# Method: In the Examples, the degree of cell degranulation was assessed through determination of β-hexosaminidase activity. In a specific procedure, basophil-like cells (RBL-2H3, Human Science Laboratory Resource Bank) were suspended in a Dulbecco's modified Eagle's medium (DMEM, product of Gibco) containing a 10% fetal calf serum, and the suspension was incubated overnight at 37° C. in a 96-well plate (2.5×10^5 cells/mL) in the presence of 0.1 μg/mL anti-dinitrophenyl (DNP)-IgE antibody (product of SIGMA).
# The thus-treated basophil-like cells (RBL-2H3) were washed with phosphate buffer (PBS) and further incubated at 37° C. for 30 minutes in the presence of each test substance (Examples 1 to 6 and Comparative Examples 1 to 3) at a predetermined concentration. The concentrations at which incubation was performed were 0.1, 0.2, 0.3, 0.4, and 0.5 μM (ACNQ); 20, 30, 40, 60, and 80 μM (DHNA); 60, 70, 80, 90, and 100 μM (2-methyl-1,4-naphthoquinone (vitamin K3)); 10, 20, 30, 40, and 50 μM (4-amino-2-methyl-1-naphthol (vitamin K5)); 10, 20, 30, 40, and 50 μM (1,4-naphthoquinone); 3, 4, 5, 6, and 7 μM (2-amino-3-chloro-1,4-naphthoquinone); 50 and 100 μM (vitamin K1); 25, 50, and 100 μM (vitamin K2); and 50 and 100 μM (1,3-naphthalenediol).
# The thus-incubated basophil-like cells (RBL-2H3) were washed with PBS, and further incubated at 37° C. for one hour in the presence of 1-μg/mL DNP-BSA (product of SSL). After completion of incubation, a supernatant was recovered from each well, and the activity of β-hexosaminidase contained in each supernatant was determined. The activity of β-hexosaminidase remaining in the cells was also determined through solubilizing the remaining cells with 0.1% polyoxyethylene(10)octylphenyl ether/DMEM.
# Each of the thus-obtained supernatants and cell solubilized liquids was added to a 96-well plate (50 μL/well), and 2 mM p-nitrophenyl N-acetyl-β-D-glucosaminide (product of SIGMA) serving as a substrate was added thereto (50 μL/well). After incubation at 37° C. for two hours, a suppressor (1M Tris, pH: 9.0) was added thereto (150 μL/well), and the absorbance at 415 nm was measured by means of a plate reader. For assessing degranulation, percent β-hexosaminidase release (%) was calculated through the following formula: Percent β-hexosaminidase release (%)=100×(OD415 of supernatant)/(OD415 of supernatant+OD415 of solubilized cells).
# The β-hexosaminidase activity of supernatant was determined as described above. The β-hexosaminidase activity of a supernatant of basophil-like cells (RBL-2H3) incubated in the presence of each of the test substances of Examples 1 to 6 and Comparative Examples 1 to 3) was measured, whereby 50% β-hexosaminidase release inhibitory concentration (IC50) was calculated.
# [2] = test system: basophil-like cells (RBL-2H3); conditions: Non-Patent Document 2; cited from earlier work
# PCA reaction = experiment: PCA reaction, Evans Blue leakage to ear auricles; assay type: in vivo; conditions: ICR mice, 100 μg/kg perorally one hour before PCA induction, compared with CMC sodium-administered group, P<0.05 t-test (FIG. 3)
# Method: ICR mice (female, 6-week old) were preliminarily bred and grouped into the following three groups such that these groups had the same average body weight: Group 1, 0.5% carboxy-methyl-cellulose (CMC) sodium-administered group (Comparative Example 4); Group 2, ACNQ (100 μg/kg)-administered group (Example 7); and Group 3, PCA-non-induced group (Comparative Example 5). Groups 1 and 2 each included 8 mice, and Group 3 included 4 mice. Group 1 (CMC sodium-administered group) served as a control group with respect to Group 2 (ACNQ-administered group).
# To each of the ICR mice of Groups 1 and 2, an anti-DNP-IgE antibody (100 ng/body) was intradermally administered through an ear auricle. Instead of the anti-DNP-IgE antibody, physiological saline was administered in a similar manner to each of the ICR mice of Group 3. […]
# Subsequently, one hour after administration of each test substance, DNP-bound BSA (0.25 mg/body) serving as an antigen and Evans Blue were intravenously administered to each of the ICR mice of Groups 1 to 3, to thereby induce PCA. […] The absorbance of each extract at 620 nm was determined, to thereby calculate the Evans Blue level leaked to the ear auricle.
# [3] = Rattus norvegicus, RBL-2H3, 0.5 h, RBL-2H3, 30 minutes incubation with test substance, DNP-BSA stimulation
# [4] = Rattus norvegicus, RBL-2H3, 0.5 h, RBL-2H3, same IC50 expressed in μg/mL
# [5] = Rattus norvegicus, RBL-2H3, RBL-2H3, same IC50 expressed in μg/mL
# [6] = RBL-2H3, 30 minutes incubation with test substance, DNP-BSA stimulation
# [7] = RBL-2H3, same IC50 expressed in μg/mL
Compound,"IC50 [1, 3] [µM]","IC50 [1, 4] [µg/mL]","IC50 [1, 5] [µg/mL]",also measured
"CC1=CC(=O)c2ccccc2C1=O [Vitamin K3, 2-methyl-1,4-naphthoquinone]",~50,11.5,11.5,–
"CN1CCC(=C2c3ccccc3CC(=O)c3sccc32)CC1 [ketotifen fumarate, 4-(1-methyl-4-piperidylidene-4H-benzo[4,5]-cyclohepta[1,2-b]-thiophen-10(9H)-one hydrogen fumarate]",–,–,–,IC50 [2]: 214 µM; IC50 to basophil-like cells (RBL-2H3) [2]: 91 µg/mL
"menaquinone [Vitamin K2, reference compound]",–,–,–,"IC50 [1, 6]: > 100 µM; 50% β-hexosaminidase release inhibitory concentration (IC50) [1, 7]: (>44 μg/mL)"
"NC1=C(C(=O)O)C(=O)c2ccccc2C1=O [ACNQ, 2-amino-3-carboxy-1,4-naphthoquinone]",0.25,0.0545,0.0545,"percent β-hexosaminidase release, relative to that of sample containing no test substance (0 μM) ([1]; ACNQ concentration ≧0.4 μM (FIG. 1)): about 20%; Evans Blue level leaked to the ear auricle (PCA reaction): significantly lowered"
"O=C1C=CC(=O)c2ccccc21 [1,4-Naphthoquione, 1,4-naphthoquinone]",~30,4.7,4.7,–
"Oc1cc(O)c2ccccc2c1 [1,3-Naphthalenediol, 1,3-naphthalenediol, reference compound]",–,–,–,"IC50 ([1]; Rattus norvegicus, RBL-2H3, 0.5 h): > 100 µM and > 16 µg/mL"
"COc1ccc(C=CC(=O)Nc2ccccc2C(=O)O)cc1OC [tranilast, N-(3,4-dimethoxycinnamoyl)anthranilic acid]",–,–,–,IC50 [2]: 492 µM; IC50 to basophil-like cells (RBL-2H3) [2]: 161 µg/mL
"NC1=C(Cl)C(=O)c2ccccc2C1=O [2-Amino-3-chloro-1,4-naphthoquinone, 2-amino-3-chloro-1,4-naphthoquinone]",6.8,1.4,1.4,–
"O=C(O)c1cc(O)c2ccccc2c1O [DHNA, 1,4-dihydroxy-2-naphthoic acid]",~50,8.2,8.2,"percent β-hexosaminidase release, relative to that of sample containing no test substance (0 μM) ([1]; DHNA concentration ≧60 μM (FIG. 2)): about 20%"
"CC1=C(C/C=C(\C)CCC[C@H](C)CCC[C@H](C)CCCC(C)C)C(=O)c2ccccc2C1=O [Vitamin K1, phylloquione, reference compound]",–,–,–,"IC50 [1, 6]: > 100 µM; 50% β-hexosaminidase release inhibitory concentration (IC50) [1, 7]: (>45.1 μg/mL)"
"Cc1cc(N)c2ccccc2c1O [Vitamin K5, 4-amino-2-methyl-1-naphthol]",~30,6.1,6.1,–
